Like-named read-outs stand apart in the source and are kept apart here.
Legend:
[1] = Toxicity test in mice, mortality after 7 days (Litchfield and Wilcoxon); design: species or system mice (ddY-SLC); conditions: mouse, in vivo
Description: Each of the compounds listed in Table 1 was administered in the form of a suspension, to which 0.5% w/v gum tragacanth had been added, to a group of 5 week old ddY-SLC series mice. Each test group consisted of 10 male and 10 female mice. The LD50 value was calculated, by the method of Litchfield and Wilcoxon [J. Pharmac. Exp. Ther. 96, 99 (1949)], from the mortality rate after 7 days.

[2] = tested on: green rice leafhopper (Naphotettix cincticeps); assay: Activity against the green rice leafhopper, dust on rice seedlings; type: in vivo; conditions: Nephotettix cincticeps, topical, 10 mg per pot, resistant strain, final instar larvae, 72 hours, 25° C., read-out: Percentage mortality, Green rice leafhopper
Description: (§1) A dust was prepared by homogeneously mixing and pulverizing twice with a pulverizer 2 parts by weight of each in turn of the test compounds indicated in Table 4 and 98 parts by weight of clay. The dusts were then sprayed onto rice seedlings planted in plastic pots and covered with a plastic cylinder in amounts sufficient to provide 10 mg of the […] dust per pot (corresponding to 1.4 kg of dust per 10 ares). 10-15 of the final instar larvae of the green rice leafhopper (Naphotettix cincticeps) or of the brown planthopper (Nilaparvata lugens) of strains known to be resistant both to conventional organic phosphorus and carbamate insecticides were released into each pot. After maintaining the pots at 25° C. for 72 hours, the percentage mortality of the larvae was assessed. Each test was carried out twice and the results averaged.

[3] = tested on: brown planthopper (Nilaparvata lugens); assay: Activity against the brown planthopper, dust on rice seedlings; type: in vivo; conditions: topical, 10 mg per pot, resistant strain, final instar larvae, 72 hours, 25° C., read-out: Percentage mortality, Brown planthopper
Description: as §1

[4] = tested on: green peach aphid (Myzus persicae); assay: Control of green peach aphid, contact activity; type: in vivo; conditions: topical, 72 hours, 25° C., read-out: Percentage mortality of green peach aphid, Contact
Description: (§2) A wettable powder was prepared by homogeneously mixing and pulverizing three times in a hammer mill 10 parts by weight of one of the test compounds indicated in Tables 2 and 3, 4 parts by weight of sodium dodecylbenzene sulphonate, 2 parts by weight of polyvinyl alcohol and 84 parts by weight of clay. The wettable powder thus prepared was then diluted with water to the concentration indicated in Table 1, and then 0.01% w/v of Gramin (a spreader) was added.
The resulting diluted solution was then sprayed onto the leaves of a cabbage bearing green peach aphids (Myzus persicae) in an amount of 10 ml per leaf. The leaf stalk of each leaf was then placed in a 30 ml bottle containing water and the mouth of the bottle was plugged with cotton wool. The bottles were then left in a room maintained at 25° C.

[5] = tested on: green peach aphid (Myzus persicae); assay: Control of green peach aphid, systemic activity; type: in vivo; conditions: 72 hours, 25° C., read-out: Percentage mortality of green peach aphid, Systemic
Description: as §2
The suspensions were then poured into 30 ml bottles. Leaves of the Chinese mustard "Komatsuna" bearing green peach aphids were then placed in the bottles and the mouths of the bottles were plugged with cotton wool. The bottles were placed in a room maintained at 25° C. for 72 hours, after which the percentage mortality of the aphids was assessed.

[6] = tested on: green peach aphids of a strain resistant to organic phosphate insecticides; assay: Activity against green peach aphids (mixed formulation); type: in vivo; conditions: Myzus persicae, topical, read-out: Percentage mortality
Description: Emulsifiable concentrates containing a total of 25% by weight of active ingredient or ingredients were prepared as described in Example 22 and diluted with water to the concentrations given in the following Table 6. Each emulsion contained as active ingredient Compound No. 1, Compound No. 9 or the known insecticide isoxathion alone or contained a mixture of isoxathion and Compound No. 1 or No. 9. The diluted emulsions were sprayed, in an amount of 10 ml per leaf, onto the leaves of the Chinese mustard "Komatsuna" bearing green peach aphids of a strain known to be resistant to organic phosphate insecticides. The leaf stalks of the leaves were placed into 30 ml bottles and the mouths of the bottles were plugged with cotton wool. After maintaining the leaves at 25° C. for 72 hours, the percentage mortality was assessed and the results are shown in Table 6. The expected percentage mortality of the combinations of Compound No. 1 or No. 9 with Isoxation is shown in parentheses in the table.

brown planthopper = assay: Activity against the brown planthopper (mixed formulation); type: in vivo; conditions: Nilaparvata lugens, topical; for mortality at 50 mg: read-out: percentage mortality, insecticide alone (Compound 1 0 mg)
Description: Soil and water were placed into plastic pots having inside diameters and heights each of about 10 cm to prepare the pots for submerged cultivation,with water to a depth of about 2 cm. Rice seedlings were then planted in the pots and maintained in a greenhouse, until they had grown to a height of about 15 cm.
Dusts were prepared, each containing 0.1% w/w of Compound No. 1 or of the known organic phosphate or carbamate insecticides listed in Table 5, and these were homogeneously applied, in the amounts specified in the Table, to each pot. 10-15 of the final instar larvae of the brown planthopper were then released onto each pot. The pots were then covered and maintained at 25° C. for 72 hours, after which the percentage mortality of the larvae was assessed.
The experiments were conducted using the known organic phosphate and carbamate insecticides either alone or together with Compound No. 1 (50 mg). The percentage mortality achieved using Compound No. 1 alone in an amount of 50 mg was also assessed and found to be 0%. The expected percentage mortality of the combination of Compound No. 1 with the known organic phosphate and carbamate insecticides was calculated by the method of C. I. Bliss [Ann. Appl. Biol. 26, 585 (1939)] and is shown in parentheses in the Table.

[7] = 0.1% dust 50 mg, 72 hours, 25° C.

SMILES	mortality at 50 ppm [4] [%]	mortality at 6.25 ppm [5] [%]	other results
Cc1cc(OC(=O)N(C)C)no1 [3-Dimethylcarbamoyloxy-5-methylisoxazole, reference compound]	84	89	LD50 at 168 h ([1]; male/female mice): 31.2 mg/kg; mortality at 10 mg/pot [2]: 9%; mortality at 10 mg/pot [3]: 22%; mortality at 12.5 ppm [4]: 34%; mortality at 1.56 ppm [5]: 74%
CSCc1cc(OC(=O)N(C)C)no1 [Compound No. 1, 3-Dimethylcarbamoyloxy-5-methylthiomethylisoxazole]	100	100	LD50 at 168 h ([1]; female mice): 109 mg/kg; LD50 at 168 h ([1]; male mice): 110 mg/kg; mortality at 10 mg/pot [2]: 65%; mortality at 10 mg/pot [3]: 100%; mortality at 12.5 ppm [4]: 83%; mortality at 5 ppm ([6]; 72 h): 25.8%; mortality at 10 ppm ([6]; 72 h): 59.8%; mortality at 50 mg/pot (brown planthopper; 72 h, read-out: percentage mortality, Compound No. 1 alone): 0%; mortality at 1.56 ppm [5]: 100%
CCSCc1cc(OC(=O)N(C)C)no1 [Compound No. 2, 3-Dimethylcarbamoyloxy-5-ethylthiomethylisoxazole]	100	100	LD50 at 168 h ([1]; female mice): 104 mg/kg; LD50 at 168 h ([1]; male mice): 125 mg/kg; mortality at 10 mg/pot [2]: 67%; mortality at 10 mg/pot [3]: 95%
CN(C)C(=O)Oc1cc(C[S+](C)[O-])on1 (stereo not shown) [Compound No. 5, 3-Dimethylcarbamoyloxy-5-methylsulphinylmethylisoxazole]	86	100	
CSCc1onc(OC(=O)N(C)C)c1Cl [Compound No. 9, 4-Chloro-3-dimethylcarbamoyloxy-5-methylthiomethylisoxazole]	100	100	mortality at 10 mg/pot [3]: 100%; mortality at 12.5 ppm [4]: 90%; mortality at 2.5 ppm ([6]; 72 h): 20.1%; mortality at 5 ppm ([6]; 72 h): 38.4%; mortality at 1.56 ppm [5]: 100%
CN(C)C(=O)Oc1noc(CS(C)(=O)=O)c1Cl [Compound No. 12, 4-Chloro-3-dimethylcarbamoyloxy-5-methylsulphonylmethylisoxazole]	82	90	
CCOP(=S)(OCC)Oc1cc(-c2ccccc2)on1 [Isoxathion, O,O-Diethyl O-(5-phenyl-3-isoxazolyl)phosphorothioate, reference compound]			mortality at 25 ppm ([6]; Isoxathion 25 ppm, 72 hours, 25° C.): 0%; mortality at 50 ppm ([6]; Isoxathion 50 ppm, 72 hours, 25° C.): 4.4%
CNC(=O)Oc1ccccc1C(C)C [MIPC, 2-Isopropylphenyl N-methylcarbamate]			mortality at 50 mg (brown planthopper; [7]): 25%
CNC(=O)Oc1cccc(C)c1 [MTMC, 3-Tolyl N-methylcarbamate]			mortality at 50 mg (brown planthopper; [7]): 20.8%
CNC(=O)Oc1cccc2ccccc12 [NAC, 1-Naphthyl N-methylcarbamate]			mortality at 50 mg (brown planthopper; 72 h): 29.2%
CCCSCc1cc(OC(=O)N(C)C)no1 [compound 3, 3-Dimethylcarbamoyloxy-5-propylthiomethylisoxazole]	86	100	mortality at 10 mg/pot [2]: 68%; mortality at 10 mg/pot [3]: 68%
CC(C)SCc1cc(OC(=O)N(C)C)no1 [compound 4, 3-Dimethylcarbamoyloxy-5-isopropylthiomethylisoxazole]	81	96	
CC[S+]([O-])Cc1cc(OC(=O)N(C)C)no1 (stereo not shown) [compound 6, 3-Dimethylcarbamoyloxy-5-ethylsulphinylmethylisoxazole]	88	100	
CN(C)C(=O)Oc1cc(CS(C)(=O)=O)on1 [compound 7, 3-Dimethylcarbamoyloxy-5-methylsulphonylmethylisoxazole]	82	85	
CCS(=O)(=O)Cc1cc(OC(=O)N(C)C)no1 [compound 8, 3-Dimethylcarbamoyloxy-5-ethylsulphonylmethylisoxazole]	80	85	
CCSCc1onc(OC(=O)N(C)C)c1Cl [compound 10, 4-Chloro-3-dimethylcarbamoyloxy-5-ethylthiomethylisoxazole]	97	100	
CN(C)C(=O)Oc1noc(C[S+](C)[O-])c1Cl (stereo not shown) [compound 11, 4-Chloro-3-dimethylcarbamoyloxy-5-methylsulphinylmethylisoxazole]	100	100	
CSCc1onc(OC(=O)N(C)C)c1Br [compound 13, 4-Bromo-3-dimethylcarbamoyloxy-5-methylthiomethylisoxazole]	100	100	mortality at 12.5 ppm [4]: 99%; mortality at 1.56 ppm [5]: 100%
CSCc1onc(OC(=O)N(C)C)c1I [compound 14, 3-Dimethylcarbamoyloxy-4-iodo-5-methylthiomethylisoxazole]	86	100	
COCc1cc(OC(=O)N(C)C)no1 [compound 15, 3-Dimethylcarbamoyloxy-5-methoxymethylisoxazole]	84	100	

Reference: US4892882A, “Carbamoyloxy-isoxazole derivatives, their preparation and insecticidal compositions containing them” (priority 1980, dated 1990)
